Assay results as given in patent US8580309B2, “Antimicrobial mixtures” (priority 2006, dated 2013).

Experiments:
[1] = test system: Staphylococcus aureus NCTC 6571; test: Lethal photosensitisation of S. aureus by gold nanoparticle-photosensitiser mixtures under white light, viable counting; assay type: cell-based; conditions: preliminary experiments, 30 minutes light exposure
Experimental: Gold nanoparticles (2.0 nm diameter; British Biocell International) in water (15×10^13 particles per ml) were mixed with an equal volume of an aqueous solution of toluidine blue O (40 μM) and left at room temperature for 15 minutes. 100 μl of the gold-TB solution was added to 100 μl of a suspension of Staphylococcus aureus NCTC 6571 in phosphate buffered saline (PBS) and this was irradiated with white light from a fluorescent white lamp for 10 minutes. Controls consisted of:
(i) TB (final concentration=10 μM) and bacteria, irradiated for the same period of time,
(ii) nanogold (diluted 1:1 with water) and bacteria, irradiated for the same period of time,
(iii) bacteria without TB or nanogold, not irradiated (“control”).
After irradiation, the number of surviving bacteria was determined by viable counting. […] Note that the TB concentration and light energy dose used were designed to give sub-optimal kills so that differences in efficacy of the TB and the TB-nanogold could be discerned. Preliminary experiments using 30 minutes light exposure achieved total kills of the bacterial suspensions in both cases.
Gold nanoparticles of approximately 15 nm in diameter (batches NN1 and NN2 above) were mixed with an equal volume of aqueous toluidine blue O (TB) and left at room temperature for 15 minutes. TB was used at a final concentration of 1, 5, 10, 20 or 50 μM. […]

[2] = test system: Staphylococcus aureus NCTC 6571; test: Lethal photosensitisation of S. aureus by TBO-tiopronin-gold nanoparticle conjugate, white light, viable counting; assay type: cell-based; conditions: irradiated with white light for any length of time (15, 30, 45 minutes)

## Cc1cc2nc3ccc(N(C)C)cc3[s+]c2cc1N.[Cl-] [TB only, toluidine blue O]
[1]
  kill of the bacterial suspensions (in words): total kills
[2]
  antibacterial effect (in words): no effect
